Assay results from ChEMBL document CHEMBL4616633, “Citral Inhibits the Inflammatory Response and Hyperalgesia in Mice: The Role of TLR4, TLR2/Dectin-1, and CB2 Cannabinoid Receptor/ATP-Sensitive K+ Channel Pathways” (J Nat Prod, 2020).
The source made the active and inactive calls. The calls are words filed in the database; no cut-off is given here.

Key:
[1] = Psychoactive effect in Swiss mouse assessed as reduction in locomotor activity by measuring change in distance travelled at 1.5 mg/kg, ip and measured for 6 hrs; format: ADME, organism-based; conditions: in vivo
Mus musculus [2] = experiment: Inhibition of carrageenan-induced paw edema in Swiss mouse at 1.5 mg/kg, ip pretreated for 30 mins followed by carrageenan-stimulation and measured after 6 hrs; format: functional, organism-based
[3] = Psychoactive effect in Swiss mouse assessed as catalepsy effect at 1.5 mg/kg, ip and measured for 6 hrs; format: ADME, organism-based; conditions: in vivo
[4] = Psychoactive effect in Swiss mouse assessed as antinociceptive effect by measuring paw withdrawal latencies at 1.5 mg/kg, ip and measured for 6 hrs; format: ADME, organism-based; conditions: in vivo
[5] = Psychoactive effect in Swiss mouse assessed as hypothermic effects at 1.5 mg/kg, ip and measured for 6 hrs by thermometric method; format: ADME, organism-based; conditions: in vivo
Mus musculus [6] = experiment: Inhibition of carrageenan-induced thermal allodynia in Swiss mouse at 300 mg/kg, po pretreated for 1 hr followed by carrageenan-stimulation and measured after 6 hrs relative to control; format: functional
Mus musculus [7] = experiment: Inhibition of carrageenan-induced paw edema in Swiss mouse at 50 mg/kg, po pretreated for 30 mins followed by carrageenan-stimulation and co-treated with glibenclamide and measured after 6 hrs; format: functional, organism-based
Mus musculus [8] = experiment: Inhibition of carrageenan-induced paw edema in Swiss mouse at 50 mg/kg, po pretreated for 1 hr followed by carrageenan-stimulation and measured after 6 hrs relative to control; format: functional
Mus musculus [9] = experiment: Inhibition of carrageenan-induced thermal allodynia in Swiss mouse at 50 mg/kg, po pretreated for 30 mins followed by carrageenan-stimulation and co-treated glibenclamide and measured after 6 hrs; format: functional, organism-based
[10] = Toxicity in Swiss mouse assessed as effect on kidney weight at 5 to 2000 mg/kg, po after 14 days; format: organism-based; conditions: in vivo, 336 h
Mus musculus [11] = experiment: Inhibition of carrageenan-induced paw edema in Swiss mouse at 50 mg/kg, po pretreated for 30 mins followed by carrageenan-stimulation and co-treated with CB2R antagonist AM630 and measured after 6 hrs; format: functional, organism-based
[12] = Toxicity in Swiss mouse assessed as increase in weight gain at 5 to 2000 mg/kg, po after 14 days; format: organism-based; conditions: in vivo, 336 h
Mus musculus [13] = experiment: Inhibition of carrageenan-induced paw edema in Swiss mouse at 50 mg/kg, po pretreated for 30 mins followed by carrageenan-stimulation and co-treated with CB1R antagonist AM281 and measured after 6 hrs; format: functional, organism-based
[14] = Toxicity in Swiss mouse assessed as effect on liver weight at 5 to 2000 mg/kg, po after 14 days; format: organism-based; conditions: in vivo, 336 h
Mus musculus [15] = experiment: Inhibition of carrageenan-induced thermal allodynia in Swiss mouse at 50 mg/kg, po pretreated for 30 mins followed by carrageenan-stimulation and co-treated with CB1R antagonist AM281 and measured after 6 hrs; format: functional, organism-based
[16] = Toxicity in Swiss mouse assessed as water consumption at 50 mg/kg, po after 14 days (reference value: 50.5%); format: organism-based; conditions: in vivo, 336 h
[17] = Toxicity in Swiss mouse assessed as effect on blood urea nitrogen level weight at 5 to 2000 mg/kg, po after 14 days; format: organism-based; conditions: in vivo, 336 h
[18] = Psychoactive effect in Swiss mouse assessed as antinociceptive effect by measuring paw withdrawal latencies at 50 mg/kg, po and measured for 6 hrs; format: ADME, organism-based; conditions: in vivo
[19] = Toxicity in Swiss mouse assessed as food consumption at 300 mg/kg, po after 14 days (reference value: 27.3%); format: organism-based; conditions: in vivo, 336 h
[20] = Toxicity in Swiss mouse assessed as water consumption at 5 mg/kg, po after 14 days (reference value: 50.5%); format: organism-based; conditions: in vivo, 336 h
[21] = Toxicity in Swiss mouse assessed as effect on heart weight at 5 to 2000 mg/kg, po after 14 days; format: organism-based; conditions: in vivo, 336 h
Mus musculus [22] = experiment: Inhibition of croton oil-induced ear edema in mouse at 0.3 mg/ear administered topically pretreated for 1 hr followed by croton oil-stimulation and measured after 6 hrs relative to control; format: functional
[23] = Toxicity in Swiss mouse assessed as effect on respiratory movement at 1000 mg/kg, po after 14 days; format: organism-based; conditions: in vivo, 336 h
Mus musculus [24] = experiment: Inhibition of carrageenan-induced thermal allodynia in Swiss mouse at 50 mg/kg, po pretreated for 30 mins followed by carrageenan-stimulation and co-treated with CB2R antagonist AM630 and measured after 6 hrs; format: functional, organism-based
Mus musculus [25] = experiment: Inhibition of carrageenan-induced thermal allodynia in Swiss mouse at 100 mg/kg, po pretreated for 1 hr followed by carrageenan-stimulation and measured after 6 hrs relative to control; format: functional
[26] = Toxicity in Swiss mouse assessed as reduction in locomotion at 2000 mg/kg, po after 14 days; format: organism-based; conditions: in vivo, 336 h
[27] = Toxicity in Swiss mouse assessed as effect on ALP level weight at 5 to 2000 mg/kg, po after 14 days; format: organism-based; conditions: in vivo, 336 h
[28] = Toxicity in Swiss mouse assessed as effect on triglycerides level weight at 5 to 2000 mg/kg, po after 14 days; format: organism-based; conditions: in vivo, 336 h
[29] = Toxicity in Swiss mouse assessed as effect on ALT level weight at 5 to 2000 mg/kg, po after 14 days; format: organism-based; conditions: in vivo, 336 h
[30] = Toxicity in Swiss mouse assessed as mortality at 5 to 1000 mg/kg, po after 14 days; format: organism-based; conditions: in vivo, 336 h
Mus musculus [31] = experiment: Inhibition of LPS-induced TLR4 pathway assessed as reduction in paw edema in Swiss mouse at 50 mg/kg, po pretreated for 1 hr followed by LPS-stimulation and measured after 48 hrs relative to control; format: functional
[32] = Toxicity in Swiss mouse assessed as effect on uric acid level weight at 5 to 2000 mg/kg, po after 14 days; format: organism-based; conditions: in vivo, 336 h
[33] = Toxicity in Swiss mouse assessed as effect on lung weight at 5 to 2000 mg/kg, po after 14 days; format: organism-based; conditions: in vivo, 336 h
[34] = Toxicity in Swiss mouse assessed as effect on touch sensitivity at 1000 mg/kg, po after 14 days; format: organism-based; conditions: in vivo, 336 h
[35] = Toxicity in Swiss mouse assessed as effect on touch sensitivity at 2000 mg/kg, po after 14 days; format: organism-based; conditions: in vivo, 336 h
Mus musculus [36] = experiment: Inhibition of croton oil-induced ear edema in mouse at 0.1 mg/ear administered topically pretreated for 1 hr followed by croton oil-stimulation and measured after 6 hrs relative to control; format: functional
[37] = Toxicity in Swiss mouse assessed as effect on glucose level weight at 5 to 2000 mg/kg, po after 14 days; format: organism-based; conditions: in vivo, 336 h
Mus musculus [38] = experiment: Inhibition of carrageenan-induced paw edema in Swiss mouse at 300 mg/kg, po pretreated for 1 hr followed by carrageenan-stimulation and measured after 6 hrs relative to control; format: functional
Mus musculus [39] = experiment: Inhibition of carrageenan-induced paw edema in Swiss mouse at 100 mg/kg, po pretreated for 1 hr followed by carrageenan-stimulation and measured after 6 hrs relative to control; format: functional
[40] = Toxicity in Swiss mouse assessed as effect on total cholesterol level weight at 5 to 2000 mg/kg, po after 14 days; format: organism-based; conditions: in vivo, 336 h
[41] = Psychoactive effect in Swiss mouse assessed as reduction in locomotor activity by measuring change in distance travelled at 50 mg/kg, po and measured for 6 hrs; format: ADME, organism-based; conditions: in vivo
[42] = Toxicity in Swiss mouse assessed as reduction in locomotion at 1000 mg/kg, po after 14 days; format: organism-based; conditions: in vivo, 336 h
[43] = Toxicity in Swiss mouse assessed as effect on creatinine level weight at 5 to 2000 mg/kg, po after 14 days; format: organism-based; conditions: in vivo, 336 h
[44] = Toxicity in Swiss mouse assessed as effect on total protein level weight at 5 to 2000 mg/kg, po after 14 days; format: organism-based; conditions: in vivo, 336 h
[45] = Psychoactive effect in Swiss mouse assessed as hypothermic effects at 50 mg/kg, po and measured for 6 hrs by thermometric method; format: ADME, organism-based; conditions: in vivo
[46] = Toxicity in Swiss mouse assessed as water consumption at 1000 mg/kg, po after 14 days (reference value: 50.5%); format: organism-based; conditions: in vivo, 336 h
Mus musculus [47] = experiment: Inhibition of zymosan-induced TLR2/Dectin-1 Signaling Pathway assessed as reduction in paw edema in Swiss mouse at 50 mg/kg, po pretreated for 1 hr followed by […] and measured after 48 hrs relative to control; format: functional
[48] = Toxicity in Swiss mouse assessed as food consumption at 5 mg/kg, po after 14 days (reference value: 27.3%); format: organism-based; conditions: in vivo, 336 h
[49] = Toxicity in Swiss mouse assessed as effect on paradoxical breathing at 2000 mg/kg, po after 14 days; format: organism-based; conditions: in vivo, 336 h
Mus musculus [50] = experiment: Inhibition of carrageenan-induced thermal allodynia in Swiss mouse at 50 mg/kg, po pretreated for 1 hr followed by carrageenan-stimulation and measured after 6 hrs relative to control; format: functional
[51] = Toxicity in Swiss mouse assessed as water consumption at 300 mg/kg, po after 14 days (reference value: 50.5%); format: organism-based; conditions: in vivo, 336 h
[52] = Toxicity in Swiss mouse assessed as food consumption at 1000 mg/kg, po after 14 days (reference value: 27.3%); format: organism-based; conditions: in vivo, 336 h
[53] = Toxicity in Swiss mouse assessed as food consumption at 2000 mg/kg, po after 14 days (reference value: 27.3%); format: organism-based; conditions: in vivo, 336 h
[54] = Toxicity in Swiss mouse assessed as water consumption at 2000 mg/kg, po after 14 days (reference value: 50.5%); format: organism-based; conditions: in vivo, 336 h
[55] = Toxicity in Swiss mouse assessed as food consumption at 50 mg/kg, po after 14 days (reference value: 27.3%); format: organism-based; conditions: in vivo, 336 h
[56] = Psychoactive effect in Swiss mouse assessed as catalepsy effect at 50 mg/kg, po and measured for 6 hrs; format: ADME, organism-based; conditions: in vivo
[57] = Toxicity in Swiss mouse assessed as effect on AST level weight at 5 to 2000 mg/kg, po after 14 days; format: organism-based; conditions: in vivo, 336 h

Structure (SMILES): Cc1c(C(=O)c2cccc3ccccc23)c2cccc3c2n1[C@H](CN1CCOCC1)CO3 [WIN-552122]
- Activity [1]: Toxic
- inhibition (Mus musculus [2]): Active
- Activity [3]: Toxic
- Activity [4]: Toxic
- Activity [5]: Toxic

Structure (SMILES): CC(C)=CCCC(C)=CC=O (mixture of isomers)
- inhibition in vivo at 300 mg/kg (Mus musculus [6]): 62%
- inhibition (Mus musculus [7]): inactive
- inhibition in vivo at 50 mg/kg (Mus musculus [8]): 57%
- inhibition (Mus musculus [9]): inactive
- Activity [10]: Non-Toxic
- inhibition (Mus musculus [11]): inactive
- Activity [12]: Non-Toxic
- inhibition (Mus musculus [13]): Active
- Activity [14]: Non-Toxic
- inhibition (Mus musculus [15]): Active
- Activity [16]: 37.5%
- Activity [17]: Non-Toxic
- Activity [18]: Non-Toxic
- Activity [19]: 28.1%
- Activity [20]: 44.4%
- Activity [21]: Non-Toxic
- inhibition (INH) (Mus musculus [22]): 83%
- Activity [23]: Non-Toxic
- inhibition (Mus musculus [24]): inactive
- inhibition in vivo at 100 mg/kg (Mus musculus [25]): 80%
- Activity [26]: Non-Toxic
- Activity [27]: Non-Toxic
- Activity [28]: Non-Toxic
- Activity [29]: Non-Toxic
- Activity [30]: Non-Toxic
- inhibition in vivo at 50 mg/kg (Mus musculus [31]): 70%
- Activity [32]: Non-Toxic
- Activity [33]: Non-Toxic
- Activity [34]: Non-Toxic
- Activity [35]: Non-Toxic
- inhibition (INH) (Mus musculus [36]): 22%
- Activity [37]: Non-Toxic
- inhibition in vivo at 300 mg/kg (Mus musculus [38]): 66%
- inhibition in vivo at 100 mg/kg (Mus musculus [39]): 70%
- Activity [40]: Non-Toxic
- Activity [41]: Non-Toxic
- Activity [42]: Non-Toxic
- Activity [43]: Non-Toxic
- Activity [44]: Non-Toxic
- Activity [45]: Non-Toxic
- Activity [46]: 40%
- inhibition in vivo at 50 mg/kg (Mus musculus [47]): 45%
- Activity [48]: 31.2%
- Activity [49]: Non-Toxic
- inhibition in vivo at 50 mg/kg (Mus musculus [50]): 62%
- Activity [51]: 36%
- Activity [52]: 28.1%
- Activity [53]: 8.8%
- Activity [54]: 15.6%
- Activity [55]: 21.4%
- Activity [56]: Non-Toxic
- Activity [57]: Non-Toxic
